Legend:
[1] = target: T1, human sex Hormone Binding Globulin (SHBG) (Homo sapiens, UniProt P04278); assay: Competitive steroid-binding assay; conditions: [^3H]DHT or [^3H]estradiol as labeled ligands; order ethinylestradiol, 17β-estradiol, testosterone, 5α-dihydrotestosterone
T1 construct: Human SHBG was purified from transgenic mouse serum; made in house; host or cells: transgenic mouse (serum)
T1 sequence (P04278 30-402): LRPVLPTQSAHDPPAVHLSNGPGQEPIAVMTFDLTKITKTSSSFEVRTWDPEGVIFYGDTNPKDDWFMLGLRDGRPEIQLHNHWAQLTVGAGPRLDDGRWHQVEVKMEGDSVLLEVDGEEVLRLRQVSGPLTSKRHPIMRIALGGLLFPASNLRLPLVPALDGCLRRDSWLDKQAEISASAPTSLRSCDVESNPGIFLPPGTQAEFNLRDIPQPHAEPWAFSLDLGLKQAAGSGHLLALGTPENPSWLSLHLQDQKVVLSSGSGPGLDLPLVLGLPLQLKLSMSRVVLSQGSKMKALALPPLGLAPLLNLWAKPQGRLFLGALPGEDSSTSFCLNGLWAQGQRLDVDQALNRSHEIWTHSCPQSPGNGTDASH
Description: Human SHBG was treated for 30 min at room temperature with a dextran-coated charcoal (DCC) suspension in phosphate buffered saline (PBS) to remove any steroid ligand. After centrifugation (2,000×g for 10 min) to sediment the DCC, the supernatant containing the human SHBG was diluted in PBS to a concentration of 1 nM based on its steroid binding capacity.
The average amounts of [^3H]labeled ligands bound to SHBG at each concentration of competitor (B) were expressed as a percentage of the average amounts of [^3H]labeled ligands bound to SHBG in the absence of competitor (B0), and were plotted against the concentration of competitor in each assay tube.

[2] = tested on: immature rat uterus; conditions: continuous administration from a subcutaneous depot, Martucci et al. 1977; cited from earlier work
[3] = tested on: human breast cancer cells (MCF-7); conditions: in vitro cell proliferation, Jozan et al. 1981; cited from earlier work
[4] = intravenous, two adult women, Fishman et al. 1970; cited from earlier work
[5] = tested on: ovariectomized rats; assay: Vaginal cornification bioassay, oral administration; format: in vivo, rat; conditions: relatively low doses 0.1 and 0.3 mg/kg/day, compared with EE
Source text: Uterine weight increase in the rat is more commonly used as a measure of estrogenicity. […] In the early 1920s it was discovered that follicular fluid from the pig ovary contained a factor(s) that caused cornification/keratinization of the vaginal epithelium in the rat (Allen and Doisy, 1923, JAMA, 81, 819-821; Allen and Doisy, 1924, Am. J. Physiol., 69, 577-588). The so-called vaginal cornification response in rats subsequently provided a bioassay for testing estrogenicity. Vaginal epithelial cornification/keratinization in ovariectomized rats can be produced only by compounds considered to be true estrogens (Jones et al, 1973, Fert. Steril. 24, 284-291). […] Adult intact female CD rats were ovariectomized to induce estrogen deficiency. […] Castrate vaginal smears are indicative that complete ovariectomy was achieved. Treatment commenced following completion of the 7 days of smearing (day 0=first day of dosing). Animals were dosed, once daily for 7 consecutive days. Daily vaginal lavages continued to be obtained for 7 days after dosing was initiated in order to detect vaginal cornification, as an indication of an estrogenic response. […] Data are expressed as the number of rats showing vaginal cornification over the number of rats (ratio) treated.

[6] = tested on: morphine-dependent ovariectomized (OVX) rat; assay: Hot flush model: naloxone-induced tail skin temperature rise; format: in vivo
Description: The morphine-dependent ovariectomized (OVX) rat was used as a model for postmenopausal hot flush. The potency of estetrol (E4) to prevent tail skin temperature rises, normally accompanied by a drop in core body temperature, after naloxone-induced opiate withdrawal was tested. 17α-ethinyl-estradiol (EE) and vehicle (hydroxy propyl-beta-cyclodextrin 20% wt/vol) served as controls in this bioassay.
The morphine-dependent ovariectomized (OVX) rat model has been proposed by several investigators (Katovich et al, 1986, Maturitas, 67-76; Merchenthaler et al. 1998, Maturitas, 307-316) as an animal model for the hot flush. During opiate withdrawal with the morphine antagonist naloxone, tail skin temperature (TST) rises and this rise is accompanied by a drop in core body temperature. In addition, the temperature changes are accompanied by surges in LH and a transient tachycardia. These events are similar in magnitude and temporal nature to those observed in the menopausal hot flush.
Three days prior to the commencement of dosing, animals were anesthetized using a ketamine/xylazine anesthetic mixture and underwent a bilateral ovariectomy. A section of hair on the dorsal surface was shaved and an incision made overlying the lumbar region of the spine. The skin was separated from the underlying fascia so that a second incision could be made through the abdominal musculature approximately caudal to the kidneys. The ovaries were then exteriorized and removed and the musculature was closed with a single suture. The skin incision was closed using surgical staples. Six rats per treatment group were dosed once per day for eight consecutive days prior to and including the day of naloxone-induced opiate withdrawal (the hot flush session). The dosing commenced three days after surgical removal of the ovaries and was administered by oral gavage using a syringe and stainless steel gavage needle. […]
For the hot flush manipulations the animals were placed in a test cage. […] The tail-skin temperature was recorded until it was stable and the animals were then injected with naloxone HCl (1 mg/kg). […]

[7] = tested on: Sham- and OVX-rats; assay: Osteoporosis model: indentation test of distal femur (bone strength); format: in vivo, rat; conditions: oral treatment, dose-dependent
Description: (§1) The ovariectomized aged rat was used as a model for the human disease osteoporosis. This is an established animal model, recommended by the United States Food and Drug Administration (FDA), to evaluate and assess potential agents for osteoporosis prevention and therapy. The anti-resorptive efficacy of estetrol (E4) was tested by ex vivo measuring total and trabecular bone mineral density and bone strength after 4 weeks of treatment at necropsy. 17α-ethinyl-estradiol (EE) and vehicle (1% ethanol/arachidis oil) served as controls in this bioassay.
Three months old female Sprague-Dawley rats were either sham-operated (Sham) or ovariectomized (OVX) one day prior to commencement of the dosing study. Animals were anesthetized using a ketamine/xylazine anesthetic mixture and underwent a bilateral ovariectomy or were sham-treated. A section of hair on the dorsal surface was shaved and an incision made overlying the lumbar region of the spine. The skin was separated from the underlying fascia so that a second incision could be made through the abdominal musculature approximately caudal to the kidneys. […]
(§2) Data are expressed as the mean values obtained for each group (n=10).
The maximum load, stiffness and energy absorbed were determined from load displacement curves. Ultimate strength was calculated by dividing the maximum load by the indenter area. […]

[8] = target: T2, rat uterine cytosol estrogen receptor (Rattus norvegicus, UniProt P06211); conditions: Martucci et al. 1976; cited from earlier work
T2 construct: rat uterine cytosol estrogen receptor; host or cells: rat uterus (cytosol; nuclear fraction)
T2 sequence (P06211 1-600): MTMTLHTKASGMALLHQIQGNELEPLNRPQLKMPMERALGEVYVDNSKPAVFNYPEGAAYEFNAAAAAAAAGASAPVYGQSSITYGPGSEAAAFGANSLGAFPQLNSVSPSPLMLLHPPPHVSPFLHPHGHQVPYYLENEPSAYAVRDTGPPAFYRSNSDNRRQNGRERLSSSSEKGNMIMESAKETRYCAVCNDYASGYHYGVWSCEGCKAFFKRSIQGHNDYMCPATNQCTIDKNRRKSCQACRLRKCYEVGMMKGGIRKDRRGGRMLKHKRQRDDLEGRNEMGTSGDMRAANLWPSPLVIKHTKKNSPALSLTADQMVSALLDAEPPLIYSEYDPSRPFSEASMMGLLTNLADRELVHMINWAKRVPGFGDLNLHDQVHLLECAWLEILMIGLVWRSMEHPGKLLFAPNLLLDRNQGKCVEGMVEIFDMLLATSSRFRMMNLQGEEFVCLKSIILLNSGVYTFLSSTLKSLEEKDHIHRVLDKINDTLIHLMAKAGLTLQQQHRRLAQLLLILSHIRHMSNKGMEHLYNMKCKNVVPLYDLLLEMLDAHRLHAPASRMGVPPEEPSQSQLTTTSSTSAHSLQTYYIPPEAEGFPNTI

[9] = tested on: Sham- and OVX-rats; assay: Osteoporosis model: ex vivo pQCT densitometry of proximal tibiae; format: in vivo, rat; conditions: po 0.1-[…], 4 weeks
Description: as §1
Three months old female Sprague-Dawley rats were either sham-operated (Sham) or ovariectomized (OVX) one day prior to commencement of the dosing study. Animals were anesthetized using a ketamine/xylazine anesthetic mixture and underwent a bilateral ovariectomy or were sham-treated. […]
Ex vivo peripheral Quantitative Computed Tomography (pQCT) was performed on the excised left tibiae using a Stratec XCT-RM and associated software (Stratec Medizintechnik GmbH, Pforzheim, Germany, software version 5.40). […] The scans were analyzed using a threshold for delineation of the external boundary. The total and trabecular bone mineral content, area and density at each site were determined. […]
as §2

[10] = target: T3, rat uterine nuclear estrogen receptor (Rattus norvegicus, UniProt P06211); conditions: Martucci et al. 1976; cited from earlier work
T3 construct: rat uterine cytosol estrogen receptor; host or cells: rat uterus (cytosol; nuclear fraction)
T3 sequence (P06211 1-600): T2 sequence (P06211 1-600)

[11] = tested on: estrogen receptors in the human endometrium; conditions: Tseng et al. 1978; cited from earlier work

Compound	relative binding affinity for human SHBG [1]	uterotrophic activity [2]	agonistic potency, of the magnitude observed for 17β-estradiol [3]	excretion [4]	metabolism [4]	onset of vaginal cornification (animals responding at days 1-3) [5]	effect on naloxone-induced TST, dose dependence ([6]; oral treatment, all doses)	effect on naloxone-induced TST compared with EE ([6]; po 3.0 mg/kg/day (highest dose))	effect on naloxone-induced TST ([6]; po 0.3, 1.0 and 3.0 mg/kg/day (three highest doses))	declines in maximum load, stiffness, energy and ultimate strength [7]	relative binding affinity, of 17β-estradiol (100%) [8]	total and trabecular bone mineral content and bone mineral density, dose dependence [9]	relative binding affinity, of 17β-estradiol (100%) [10]	relative binding, of 17β-estradiol [11]
C[C@]12CC[C@H]3[C@@H](CCC4=CC(=O)CC[C@@]43C)[C@@H]1CC[C@@H]2O [testosterone]	in this order, show an increased relative binding affinity	–	–	–	–	–	–	–	–	–	–	–	–	–
C[C@]12CC[C@@H]3c4ccc(O)cc4CC[C@H]3[C@@H]1[C@@H](O)[C@@H](O)[C@@H]2O [E4, 1,3,5(10)-estratrien-3,15α,16α,17β-tetrol]	negligible	very weak uterotrophic activity	2%	rapidly and completely excreted in urine as the glucosiduronate	virtually no metabolism except for conjugation took place	as fast as in EE-treated animals	clear dose-dependent effect	suppressive response similar to the potent oral estrogen, 17α-ethinyl estradiol (EE)	attenuated the TST	prevented the declines	0.5%	consistent dose-dependent increase	0.3%	1.5%
C[C@]12CCC(=O)C[C@@H]1CC[C@@H]1[C@@H]2CC[C@]2(C)[C@@H](O)CC[C@@H]12 [5α-dihydrotestosterone]	in this order, show an increased relative binding affinity	–	–	–	–	–	–	–	–	–	–	–	–	–

Reference: US8026228B2, “Estrogenic compounds in combination with progestogenic compounds in hormone-replacement therapy” (Pantarhei Bioscience B.V., priority 2001, dated 2011)
